Experimental data as given in patent publication US6620828B2, “Thiazole compounds and pharmaceutical compositions for inhibiting protein kinases and methods for their use” (Agouron Pharmaceuticals, Inc., priority 1999, dated 2003).

Assays:
[1] = system: human umbilical vein endothelial cells (HUVEC); assay: HUVEC proliferation assay; format: cell-based; conditions: Homo sapiens, HUVEC, Table 2
Method in brief: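 Readout was MTT dye reduction (A595) after 72 h of stimulation with VEGF at 6 ng/ml final. Compound, in 0.1% DMSO final, was added 1 h before VEGF to HUVEC starved 24 h in 1% FBS. % inhibition was scaled between VEGF-alone and unstimulated wells; IC50 was fitted from triplicate dose curves.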

[2] = biological target: T1, CDK4/Cyclin D3 complex (Homo sapiens, UniProt P11802); assay: CDK4/Cyclin D assay; format: biochemical; conditions: Table 2
T1 construct: made in house; host or cells: insect cells co-infected with baculovirus vectors
T1 sequence (P11802 whole entry): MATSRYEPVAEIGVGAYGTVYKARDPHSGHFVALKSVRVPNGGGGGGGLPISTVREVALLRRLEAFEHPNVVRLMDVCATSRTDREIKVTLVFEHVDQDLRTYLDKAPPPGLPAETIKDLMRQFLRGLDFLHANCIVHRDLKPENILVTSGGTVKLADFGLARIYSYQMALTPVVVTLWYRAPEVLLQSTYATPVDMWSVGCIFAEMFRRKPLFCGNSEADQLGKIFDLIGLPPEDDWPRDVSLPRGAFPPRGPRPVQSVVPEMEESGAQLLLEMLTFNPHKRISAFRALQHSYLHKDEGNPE
T1 sequence (P30281 whole entry partner): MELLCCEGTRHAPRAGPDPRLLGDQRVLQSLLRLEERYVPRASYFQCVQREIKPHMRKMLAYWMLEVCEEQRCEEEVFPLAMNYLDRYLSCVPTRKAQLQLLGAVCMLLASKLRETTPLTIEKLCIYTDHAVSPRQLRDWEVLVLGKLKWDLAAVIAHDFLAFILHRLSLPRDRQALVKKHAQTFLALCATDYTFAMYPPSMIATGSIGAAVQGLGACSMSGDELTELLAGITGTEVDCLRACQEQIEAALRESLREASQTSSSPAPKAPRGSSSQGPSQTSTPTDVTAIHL
Method in brief: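 Insect-cell-expressed CDK4/cyclin D3 (50 nM) phosphorylating His-tagged Rb fragment (residues 386-928) with 25 μM [^32P]ATP in HEPES pH 7.4, MgCl2, 2% DMSO; 20 min at 30 °C, EDTA stop. Filter-captured 32P by phosphorimager; apparent Ki from competitive or tight-binding inhibition fits.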

[3] = biological target: T2, FGF-R1 (Homo sapiens, UniProt P11362, C488A/C584S/L457V); assay: FGF-R spectrophotometric assay; format: biochemical; conditions: Table 2
T2 construct: starting from the endogenous methionine residue 456 to glutamate 766; made in house; host or cells: baculovirus vector expression system
T2 sequence (P11362 456-766 L457V/C488A/C584S): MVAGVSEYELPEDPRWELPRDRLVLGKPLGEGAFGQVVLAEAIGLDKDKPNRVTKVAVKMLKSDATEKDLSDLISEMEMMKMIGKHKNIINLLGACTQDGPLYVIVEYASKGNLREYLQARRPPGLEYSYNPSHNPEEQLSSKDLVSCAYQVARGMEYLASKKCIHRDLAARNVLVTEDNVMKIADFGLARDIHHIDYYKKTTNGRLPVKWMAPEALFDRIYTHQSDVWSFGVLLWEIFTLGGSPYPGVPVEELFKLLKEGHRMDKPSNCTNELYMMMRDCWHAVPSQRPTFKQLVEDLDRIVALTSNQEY
Method in brief: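 Kinase domain (Met456–Glu766, baculovirus-expressed) used at 50 nM in a spectrophotometric assay run as for VEGF-R2. Substrates were 2 mM ATP and 15 mM poly(E4Y1).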

[4] = biological target: T3, CHK1 (Homo sapiens, UniProt O14757); assay: CHK1 high-throughput screening; format: biochemical; conditions: read-out: % inhibition @ 20 μM, Table 4, repeated entries per example
T3 sequence (O14757 1-476): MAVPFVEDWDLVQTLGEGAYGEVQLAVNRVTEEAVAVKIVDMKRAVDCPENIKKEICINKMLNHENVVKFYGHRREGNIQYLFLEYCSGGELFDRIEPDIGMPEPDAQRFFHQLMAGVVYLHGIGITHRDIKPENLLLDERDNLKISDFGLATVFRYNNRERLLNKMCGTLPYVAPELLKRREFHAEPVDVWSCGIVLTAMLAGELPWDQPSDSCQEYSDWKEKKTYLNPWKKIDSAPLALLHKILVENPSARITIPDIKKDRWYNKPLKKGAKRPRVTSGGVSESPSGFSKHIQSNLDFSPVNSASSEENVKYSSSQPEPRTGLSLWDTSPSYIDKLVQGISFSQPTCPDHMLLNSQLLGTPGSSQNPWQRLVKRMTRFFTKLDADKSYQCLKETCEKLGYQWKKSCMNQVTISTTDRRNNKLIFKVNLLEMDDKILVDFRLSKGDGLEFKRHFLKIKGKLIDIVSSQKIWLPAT

**Q.** Which results are given for COc1cc(Nc2nc(N)c(-c3nc(-c4cccc(O)c4)no3)s2)cc(OC)c1OC [K(1), 3-{5-[4-Amino-2-(3,4,5-trimethoxy-phenylamino)-thiazol-5-yl]-[1,2,4]oxadiazol-3-yl}-phenol]?
**A.** IC50 [1]: 0.95 µM; Ki [2]: 6.7 µM

**Q.** With COc1cc(Nc2nc(N)c(-c3nc(-c4cccc(O)c4)cs3)s2)cc(OC)c1OC [A(17), 3-[4′-Amino-2′-(3,4,5-trimethoxy-phenylamino)-[2,5′]bithiazolyl-4-yl]-phenol] as the compound, how does the Ki [3] read?
**A.** The Ki was 2.4 µM.

**Q.** And the IC50 [1]?
**A.** The IC50 was > 1 µM.

**Q.** And the melting point?
**A.** Its melting point is 226 to 230 °C.

**Q.** And the Ki [2]?
**A.** Its Ki is 29 µM.

**Q.** Which inhibition at 20 µM [4] does the source give for CCCNc1nc(N)c(-c2nc(-c3cccc(O)c3)cs2)s1 [A(29), 3-(4′-Amino-2′-propylamino-[2,5′]bithiazolyl-4-yl)-phenol] here?
**A.** The inhibition at 20 µM was 7.1%.

**Q.** And the IC50 [1]?
**A.** The IC50 was > 1 µM.

**Q.** What about the Ki [2] of the same compound?
**A.** Its Ki is 13 µM.
